“Also recorded” adds a separate entry of the source. Bridge positions count the residues as written; N and C are the ends. Square brackets hold non-standard residues; d marks the D form. Peptide text beside a SMILES is read from it.
Tests used:
NF-κB = test: Inhibition of NF-κB signaling in LPS-stimulated T84 cells, Western blot; format: cell-based, human
Description: Approximately 1.5×10^6 T84 cells were seeded into 100 mm dishes and cultured essentially as described (Shailubhai et al. 2000). At 85-90% confluence, cells were washed and treated with 10 μg/ml lipopolysaccharides (LPS) from Escherichia coli (Sigma-Aldrich, St. Louis, Mo.) for 4 h. Subsequent to LPS treatment, cells were washed and replenished with fresh media containing 8-Bromo-cyclic GMP (8-Br-cGMP) at 0, 0.1, 1, 10, 100 and 1000 μM (Enzo Life Science, Farmingdale, N.Y.), or SP-333 at 0, 0.01, 0.1, 1 and 10 μM together with 500 μM of phosphodiesterase inhibitor Zaprinast (Sigma-Aldrich, St. Louis, Mo.) for 16 h before harvest. For analyzing phosphorylation status of IKK-α/β, T84 cells were stimulated with LPS (10 μg/ml) for 4 h followed by treatment with 0.1 and 1.0 μM of SP-333 in the presence of 500 μM Zaprinast, for 2 h. The control cells (without LPS treatment) were washed and refilled with fresh media and harvested simultaneously with treated cells. Nuclear and cytosolic extracts were prepared by the previously described method (Aiamkitsumrit et al. 2007). Protein concentration was measured with a Bio-Rad protein assay kit (Bio-Rad, Hercules, Calif.). The extracts were stored at −80° C. until use.
T84 cells at 85-90% confluence were washed and treated with 10 μg/ml Escherichia coli LPS (Sigma-Aldrich, St. Louis, Mo.) for 4 h.
Western Blot analysis: This was performed essentially as described^21 employing either 50 μg of cytoplasmic or 25 μg proteins of the nuclear fractions. The blots were probed overnight with primary antibodies of interest (anti-p65 antibody, 1:200 dilution; anti-IκB antibody 1:500 dilution; anti-phosphorylated p65 antibody, 1:250 dilution; anti-phosphorylated IκB antibody 1:250 dilution; all were from Santa Cruz Biotechnology (Santa Cruz, Calif.). Anti-IKK-β and phosphorylated IKK-α/β (Ser 176/180) were purchased from Cell Signaling Technology, Boston, Mass. and used at 1:500 dilution; anti-mouse or anti-rabbit antibodies conjugated to […] were used for chemiluminescence detection as recommended by manufacturer (GE Healthcare, Piscataway, N.J.).

[1] = test system: myeloperoxidase (MPO) activity in colon tissues; test: MPO activity in lysates from mid-colon tissues, DSS-induced colitis in BDF-1 mice; format: in vivo, mouse
Description: A total of 40 samples were chosen for analysis of MPO activity and Ki-67 labeling from the treatment groups that received SP-333, its vehicle control (0.1M phosphate buffer, pH 7) and the reference compound (5-ASA). A random number generator (www.random.org) was employed to select samples from these groups (7 from each of the SP-333-recipient groups and 6 from each of the vehicle and 5-ASA groups).
Myeloperoxidase activity in colonic tissue samples was performed according to the method described (Krawisc et al., 1984). Briefly, the rate of change in absorbance at 450 nm was recorded when 20 μl of tissue extract was incubated with […] of reaction buffer containing 0.26 mg/ml 0-dianisidine and 0.6 μl/ml H2O2. Each reaction was performed in triplicate. The rate of reaction was determined (initial slope) and normalized to protein concentration of sample.

GC-C Receptor = target: T1, GC-C Receptor (Homo sapiens, UniProt P25092); test: cGMP stimulation assay in T84 cells in the presence of zaprinast (Example 2); format: cell-based
T1 construct: endogenous in cells; host or cells: T84 human colon carcinoma cells
T1 sequence (P25092 24-1073): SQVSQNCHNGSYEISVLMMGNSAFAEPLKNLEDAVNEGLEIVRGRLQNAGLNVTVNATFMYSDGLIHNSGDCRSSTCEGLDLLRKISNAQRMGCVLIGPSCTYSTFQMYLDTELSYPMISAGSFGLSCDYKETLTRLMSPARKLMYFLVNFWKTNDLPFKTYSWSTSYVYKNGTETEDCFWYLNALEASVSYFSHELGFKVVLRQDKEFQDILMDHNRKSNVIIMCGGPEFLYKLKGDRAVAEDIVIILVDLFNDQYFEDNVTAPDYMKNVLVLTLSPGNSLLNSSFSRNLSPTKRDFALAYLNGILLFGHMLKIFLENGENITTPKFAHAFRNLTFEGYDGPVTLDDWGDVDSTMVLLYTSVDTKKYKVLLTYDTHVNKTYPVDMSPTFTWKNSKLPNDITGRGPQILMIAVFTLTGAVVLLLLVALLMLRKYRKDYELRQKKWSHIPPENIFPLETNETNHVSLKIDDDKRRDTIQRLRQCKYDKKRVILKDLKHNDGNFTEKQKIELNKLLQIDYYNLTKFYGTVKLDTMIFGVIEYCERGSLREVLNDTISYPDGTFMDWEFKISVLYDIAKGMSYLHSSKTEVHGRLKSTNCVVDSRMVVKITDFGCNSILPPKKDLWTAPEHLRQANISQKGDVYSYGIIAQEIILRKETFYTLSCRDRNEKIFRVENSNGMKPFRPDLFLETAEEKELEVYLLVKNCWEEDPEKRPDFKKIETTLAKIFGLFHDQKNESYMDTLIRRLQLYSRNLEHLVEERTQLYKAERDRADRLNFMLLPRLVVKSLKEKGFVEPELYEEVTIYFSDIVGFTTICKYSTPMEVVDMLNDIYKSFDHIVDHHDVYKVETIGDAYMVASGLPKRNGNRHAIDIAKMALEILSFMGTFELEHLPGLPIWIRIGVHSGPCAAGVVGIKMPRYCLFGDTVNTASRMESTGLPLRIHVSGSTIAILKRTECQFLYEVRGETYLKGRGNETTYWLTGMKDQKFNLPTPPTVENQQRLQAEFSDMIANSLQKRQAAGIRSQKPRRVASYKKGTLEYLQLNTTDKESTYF
Description: Confluent monolayers of T84 cells in 24-well plates were pre-incubated with indicated amounts of SP-333 in the presence of zaprinast for 30 minutes at 37° C. Subsequently, the reaction was terminated by 3% perchloric acid and neutralized with 0.5N NaOH. Intracellular cGMP levels were determined in lysates using a ELISA kit (Cayman Chemical). All samples were analyzed in duplicates. Total protein was quantitated using Pierce BCA protein assay (Thermo Fisher Scientific).

[2] = format: in vitro ADME
Description: The potency of test peptides to stimulate cGMP synthesis in T84 cells was assayed by a published procedure (Shailubhai et al. 2000). Briefly, confluent monolayers of T-84 cells in 24-well plates were washed twice with 250 μl of DMEM containing 50 mM HEPES (pH 7.4), pre-incubated at 37° C. for 10 min with 250 μl of DMEM containing 50 mM HEPES (pH 7.4) and 1 mM isobutylmethylxanthine (IBMX), followed by incubation with test peptide for 30 min. The medium was aspirated, and the reaction was terminated by the addition of 3% perchloric acid. Following centrifugation, and neutralization with 0.1 N NaOH, the resulting supernatant was used directly for measurements of intracellular cGMP using an ELISA kit (Caymen Chemical, Ann Arbor, Mich.). Results are expressed as pmol of cGMP/mg of protein in the cell extracts.
Plecanatide and SP-333 were incubated in simulated intestinal fluid (SIF) for 6-24 h. Inactivated SIF was used as a control. Following the treatment, samples were analyzed by HPLC by cGMP production in T84 cells. […] The active metabolite, SP-338 was characterized by MS and MS/MS and identified to be formed via removal of carboxyl terminal leucine possibly due to cleavage by carboxypeptidases.

[3] = Non-clinical safety and toxicology studies; details: rodents and monkeys, oral

CC(C)C[C@@H]1NC(=O)[C@H](CCC(=O)O)NC(=O)[C@@H](NC(=O)[C@H](CCC(=O)O)NC(=O)[C@H](CC(=O)O)NC(=O)[C@H](N)CC(N)=O)CSSC[C@@H]2NC(=O)[C@H](C)NC(=O)[C@H](C(C)C)NC(=O)[C@H](CC(N)=O)NC(=O)[C@H](C(C)C)NC(=O)[C@H](CSSC[C@@H](C(=O)N[C@H](CC(C)C)C(=O)O)NC(=O)CNC(=O)[C@H]([C@@H](C)O)NC2=O)NC1=O [SP-333, dAsn^1-Asp^2-Glu^3-Cys^4-Glu^5-Leu^6-Cys^7-Val^8-Asn^9-Val^10-Ala^11-Cys^12-Thr^13-Gly^14-Cys^15-dLeu^16] (H-[dN]DECELCVNVACTGC[dL]-OH; disulfide 4-12, 7-15; N-terminus and C-terminus assumed)
levels of phospho-p65 (NF-κB; LPS 10 μg/ml 4 h, then SP-333 (1.0 and 10 μM) 16 h, zaprinast 500 μM): reduced levels of phospho-p65 in a dose-dependent manner | levels of IκBα (NF-κB; LPS-activated T84 cells): increase | levels of phospho-IκBα (NF-κB; LPS-activated T84 cells): reduced | level of total IKKβ (NF-κB; LPS-activated T84 cells, FIG. 3C): remained unchanged | LPS-mediated increase in phosphorylation of IKKβ (NF-κB; SP-333 1 μM, 2 h after LPS 4 h): completely reversed | LPS induced activation of NF-κB (NF-κB; T84 cells): inhibited | reduction of MPO activity ([1]; SP-333 0.05 mg/kg): ~50% | MPO activity ([1]; SP-333 0.05 mg/kg, p=0.001 vs DSS group (0.048±0.004)): 0.024±0.003 units/minute | MPO activity compared to DSS treated animals ([1]; SP-333 all doses, significant (p<0.05) except 0.5 mg/kg): significantly lower; also recorded: considerably reduced; also recorded: much lower | concentration at which cGMP synthesis approached a plateau (GC-C Receptor; FIG. 14): 1 µM | cGMP production (GC-C Receptor; FIG. 15): enhanced | biological activity lost [2]: ~20% | biological activity retained [2]: retains most of its biological activity | non-clinical safety and toxicology [3]: orally-safe drug candidate
